Assay results from US12171884B2, “Mesoporous silica nanoparticles with lipid bilayer coating for cargo delivery” (priority 2016, dated 2024).
Entries after “also recorded” stand apart in the source; their conditions may differ. Structures can show the parent of a compound that is named as a salt. Values belong to the compound of their own block, whether it stands above or below them.

What was measured:
[1] = system: PDAC; conditions: PDAC patients; cited from earlier work
[2] = system: BxPC-3 cells; assay: MTS cytotoxicity assay; assay type: cell-based; conditions: BxPC3, incremental irinotecan concentrations, 24-72 hours
[3] = human, in vivo; cited from earlier work
[4] = system: KPC-derived orthotopic tumors; assay: Efficacy assessment in KPC-derived orthotopic model; conditions: 40 mg/kg IV every 4 days
[5] = Maximum tolerated dose (NCI protocol); conditions: male, BALB/c, mouse, in vivo; Example 1; healthy mice, IV, validated in six mice over 15 days
Procedure: . Two healthy male BALB/c mice were IV injected with a 50 mg/kg (C1 dose) equivalent of free or encapsulated irinotecan. This was followed by a dose escalation factor of 1.8 to obtain the Cn dose, which results in animal death within 24 h after the last administration. The second round of dose-seeking began with the Cn-1 dose and utilized a 1.15 escalation factor (n=2) to find the MTD, which is defined as the absence of mortality or morbidity. The MTD was validated by injecting six mice, which were followed for 15 days to determine the absence of morbidity, mortality, or >15% weight loss.
. Two healthy male BALB/c mice were IV injected with 50 mg/kg (C1 dose) free or encapsulated drug. We then used a dose escalation factor of 1.8 to determine the Cn dose where both animals (n=2) died within 24 hours. After treatment with free or encapsulated irinotecan. The second round of dose-seeking began with Cn-1 dose, and utilized a 1.15 escalation factor (n=2) to find the MTD, where there was no mortality or serious morbidity. The MTD was further validated by injecting […], and following them for 15 days to ascertain that there was no morbidity, mortality or […]. […].

[6] = Acute histological analysis after single IV dose (Example 2); conditions: 60 mg/kg single IV, 24 hours; for kidney histology: hydrochloride trihydrate
[7] = Liver and intestinal toxicity (H&E, cleaved caspase-3 IHC); conditions: animals of efficacy study, 40 mg/kg every 4 days
[8] = Bone marrow toxicity and differential white cell count; assay type: in vivo, mice; conditions: 40 mg/kg IV x3, 2 days apart; listed as free drug, hydrochloride trihydrate
Procedure: Bone marrow toxicity was studied in a separate experiment, in which animals received three injections of a 40 mg/kg irinotecan dose equivalent, as described above. After sacrifice, sternal bone marrow was collected to evaluate myelotoxicity by H&E staining (FIG. 4D) (Iusuf et al. (2014) Mol. Cancer Ther. 13: 492-503).

[9] = system: PANC-1 cells; assay: MTS cytotoxicity assay; assay type: cell-based; conditions: PANC-1, incremental irinotecan concentrations, 24-72 hours
[10] = system: KPC-derived orthotopic tumor; conditions: mouse, in vivo
Source text: This stringent PDAC tumor model mimics human PDAC for oncogene expression, growth characteristics, metastasis, histological features and development of a dysplastic stroma. […] Imaging intensity was quantified by IVIS Lumina Living Image software.

[11] = system: patient-derived PDAC xenograft XWR #187; conditions: mouse, in vivo, 50 mg/kg

Compound: Nc1ccn([C@@H]2O[C@H](CO)[C@@H](O)C2(F)F)c(=O)n1 [GEM, gemcitabine]
response rate [1]: 9.4%
survival [1]: 6.8 months

Compound: CCc1c2c(nc3ccc(OC(=O)N4CCC(N5CCCCC5)CC4)cc13)-c1cc3c(c(=O)n1C2)COC(=O)[C@]3(O)CC [free irinotecan, Irinotecan hydrochloride trihydrate]
cell killing (MTS) [2]: more effective in killing over 24 hours
G.I.T. adverse effects (vomiting, diarrhea, nausea, anorexia) [3]: ~50 % of patients
incidence of neutropenia [3]: ~60%
effect on metastasis (ex vivo bioluminescence) [4]: failed to affect metastasis
MTD at 15 days [5]: 60 mg/kg
bone marrow toxicity (H&E histology) [6]: Severe bone marrow damage and apoptosis
kidney histology ([6]; listed as Free irinotecan): nephrotoxicity
kidney histology ([6]; listed as free IRIN): swelling and edema of Bowman's space
liver histology (H&E) [7]: severe and extensive hepatocyte necrosis
peripheral blood neutrophil count [8]: significant decrease of the absolute neutrophil count; also recorded: peripheral blood neutropenia
cell killing (MTS) [9]: more effective in killing over 24 hours

enhancement of silicasome uptake at orthotopic tumor site by co-administration [10]: 3-4 fold
increase of NIR intensity at the tumor site [11]: 50%
Compound: N=C(N)NCCC[C@@H]1NC(=O)[C@@H](N)CSSC[C@@H](C(=O)O)NC(=O)[C@H](CC(=O)O)NC(=O)[C@@H]2CCCN2C(=O)CNC(=O)[C@H](CCCCN)NC(=O)[C@H](CC(=O)O)NC(=O)CNC1=O [iRGD]
intratumoral particle abundance and traveling distance from blood vessels [10]: most effective strategy to enhance silicasome uptake

Compound: FOLFIRINOX
response rate [1]: 31.6%
survival [1]: ~11 months
